Results taken from ChEMBL document CHEMBL3734705, “Synthesis and in vitro cytotoxicity of novel C-12 substituted-14-deoxy-andrographolide derivatives as potent anti-cancer agents” (2015).
The source made the active and inactive calls. The calls are words filed in the database; no cut-off is given here.

Tests used:
[1] = Cytotoxicity against human HCT116 cells assessed as growth level at 10 uM after 48 hrs by SRB assay; assay type: functional, HCT-116
[2] = Cytotoxicity against human NCI-ADR-RES cells assessed as growth level at 10 uM after 48 hrs by SRB assay; assay type: functional
[3] = Cytotoxicity against human RXF393 cells assessed as growth inhibition at 10 uM after 48 hrs by SRB assay; assay type: functional; settings: RXF 393, 48 h, read-out: GI
[4] = Cytotoxicity against human HOP62 cells assessed as growth inhibition at 10 uM after 48 hrs by SRB assay; assay type: functional; settings: HOP-62, 48 h, read-out: GI
[5] = Cytotoxicity against human SF268 cells assessed as growth inhibition at 10 uM after 48 hrs by SRB assay; assay type: functional; settings: SF-268, 48 h, read-out: GI
NCI-H322M = test: Cytotoxicity against human NCI-H322M cells assessed as growth inhibition at 10 uM after 48 hrs by SRB assay; assay type: functional
[6] = Cytotoxicity against human SKOV3 cells assessed as growth level at 10 uM after 48 hrs by SRB assay; assay type: functional, SK-OV-3
Malme-3M = test: Cytotoxicity against human MALME-3M cells assessed as growth level at 10 uM after 48 hrs by SRB assay; assay type: functional
T47D = test: Cytotoxicity against human T47D cells assessed as growth level at 10 uM after 48 hrs by SRB assay; assay type: functional
[7] = Cytotoxicity against human UO31 cells assessed as growth inhibition at 10 uM after 48 hrs by SRB assay; assay type: functional; settings: UO-31, 48 h, read-out: GI
786-0 = test: Cytotoxicity against human 786-0 cells assessed as growth inhibition at 10 uM after 48 hrs by SRB assay; assay type: functional; settings: 786-0, 48 h, read-out: GI
ACHN = test: Cytotoxicity against human ACHN cells assessed as growth inhibition at 10 uM after 48 hrs by SRB assay; assay type: functional; settings: read-out: GI
[8] = Cytotoxicity against human Caki1 cells assessed as growth inhibition at 10 uM after 48 hrs by SRB assay; assay type: functional; settings: CAKI-1, 48 h, read-out: GI
[9] = Cytotoxicity against human SNB75 cells assessed as growth level at 10 uM after 48 hrs by SRB assay; assay type: functional, SNB-75
SK-MEL-28 = test: Cytotoxicity against human SK-MEL-28 cells assessed as growth level at 10 uM after 48 hrs by SRB assay; assay type: functional
EKVX [10] = test: Cytotoxicity against human EKVX cells assessed as growth inhibition at 10 uM after 48 hrs by SRB assay; assay type: functional; settings: read-out: GI
[11] = Cytotoxicity against human HCT15 cells assessed as growth inhibition at 10 uM after 48 hrs by SRB assay; assay type: functional; settings: HCT-15, 48 h, read-out: GI
[12] = Cytotoxicity against human SF295 cells assessed as growth level at 10 uM after 48 hrs by SRB assay; assay type: functional, SF-295
[13] = Cytotoxicity against human BT549 cells assessed as growth inhibition at 10 uM after 48 hrs by SRB assay; assay type: functional; settings: BT-549, 48 h, read-out: GI
[14] = Cytotoxicity against human HOP92 cells assessed as growth inhibition at 10 uM after 48 hrs by SRB assay; assay type: functional; settings: HOP-92, 48 h, read-out: GI
MCF7 = test: Cytotoxicity against human MCF7 cells assessed as growth level at 10 uM after 48 hrs by SRB assay; assay type: functional
[15] = Cytotoxicity against human LOXIMVI cells assessed as growth level at 10 uM after 48 hrs by SRB assay; assay type: functional, LOX IMVI
NCI-H226 = test: Cytotoxicity against human NCI-H226 cells assessed as growth inhibition at 10 uM after 48 hrs by SRB assay; assay type: functional; settings: NCI-H226, 48 h, read-out: GI
[16] = Cytotoxicity against human RPMI8226 cells assessed as growth level at 10 uM after 48 hrs by SRB assay; assay type: functional, RPMI-8226
[17] = Cytotoxicity against human UACC62 cells assessed as growth inhibition at 10 uM after 48 hrs by SRB assay; assay type: functional; settings: UACC-62, 48 h, read-out: GI
KM12 = test: Cytotoxicity against human KM12 cells assessed as growth inhibition at 10 uM after 48 hrs by SRB assay; assay type: functional; settings: KM12, 48 h, read-out: GI
[18] = Cytotoxicity against human PC3 cells assessed as growth inhibition at 10 uM after 48 hrs by SRB assay; assay type: functional; settings: PC-3, 48 h, read-out: GI
[19] = Cytotoxicity against human LOXIMVI cells assessed as growth inhibition at 10 uM after 48 hrs by SRB assay; assay type: functional; settings: LOX IMVI, read-out: GI
[20] = Cytotoxicity against human SF539 cells assessed as growth inhibition at 10 uM after 48 hrs by SRB assay; assay type: functional; settings: SF-539, 48 h, read-out: GI
A549 = test: Cytotoxicity against human A549 cells assessed as growth level at 10 uM after 48 hrs by SRB assay; assay type: functional
HT-29 [21] = test: Cytotoxicity against human HT-29 cells assessed as growth level at 10 uM after 48 hrs by SRB assay; assay type: functional
MDA-MB-231 = test: Cytotoxicity against human MDA-MB-231 cells assessed as growth inhibition at 10 uM after 48 hrs by SRB assay; assay type: functional; settings: MDA-MB-231, 48 h, read-out: GI
A498 = test: Cytotoxicity against human A498 cells assessed as growth inhibition at 10 uM after 48 hrs by SRB assay; assay type: functional; settings: A498, 48 h, read-out: GI
CCRF-CEM = test: Cytotoxicity against human CCRF-CEM cells assessed as growth inhibition at 10 uM after 48 hrs by SRB assay; assay type: functional; settings: read-out: GI
[22] = Cytotoxicity against human RXF393 cells assessed as growth level at 10 uM after 48 hrs by SRB assay; assay type: functional, RXF 393
[23] = Cytotoxicity against human SKOV3 cells assessed as growth inhibition at 10 uM after 48 hrs by SRB assay; assay type: functional; settings: SK-OV-3, 48 h, read-out: GI
[24] = Cytotoxicity against human NCI-ADR-RES cells assessed as growth inhibition at 10 uM after 48 hrs by SRB assay; assay type: functional; settings: read-out: GI
U-251 = test: Cytotoxicity against human U251 cells assessed as growth level at 10 uM after 48 hrs by SRB assay; assay type: functional
EKVX [25] = test: Cytotoxicity against human EKVX cells assessed as growth level at 10 uM after 48 hrs by SRB assay; assay type: functional
HT-29 [26] = test: Cytotoxicity against human HT-29 cells assessed as growth inhibition at 10 uM after 48 hrs by SRB assay; assay type: functional; settings: HT-29, 48 h, read-out: GI
[27] = Cytotoxicity against human HCT116 cells assessed as growth inhibition at 10 uM after 48 hrs by SRB assay; assay type: functional; settings: HCT-116, 48 h, read-out: GI
[28] = Cytotoxicity against human HCC2998 cells assessed as growth level at 10 uM after 48 hrs by SRB assay; assay type: functional, HCC 2998
[29] = Cytotoxicity against human SNB19 cells assessed as growth level at 10 uM after 48 hrs by SRB assay; assay type: functional, SNB-19
[30] = Cytotoxicity against human SNB19 cells assessed as growth inhibition at 10 uM after 48 hrs by SRB assay; assay type: functional; settings: SNB-19, 48 h, read-out: GI

SMILES: C=C1CC[C@@H]2[C@](C)(COC(C)=O)[C@H](OC(C)=O)CC[C@@]2(C)[C@@H]1CC(NC1CCCC1)C1=CCOC1=O (stereo partly specified)
- Activity [1]: 44.68%
- Activity [2]: 68.47%
- inhibition of growth at 10 µM [3]: 22%
- inhibition of growth at 10 µM [4]: 5.59%
- inhibition of growth at 10 µM [5]: 23.3%
- growth inhibition (GI) (NCI-H322M): inactive
- Activity [6]: 87.88%
- Activity (Malme-3M): 84.55%
- Activity (T47D): 50.85%
- inhibition of growth at 10 µM [7]: 43.9%
- inhibition of growth at 10 µM (786-0): 7.49%
- inhibition of growth at 10 µM (ACHN): 21.5%
- inhibition of growth at 10 µM [8]: 39.3%
- Activity [9]: 68.03%
- Activity (SK-MEL-28): 91.05%
- inhibition of growth at 10 µM (EKVX [10]): 47.6%
- inhibition of growth at 10 µM [11]: 33%
- Activity [12]: 90.39%
- inhibition of growth at 10 µM [13]: 44.4%
- inhibition of growth at 10 µM [14]: 74.8%
- Activity (MCF7): 72.42%
- Activity [15]: 68.48%
- inhibition of growth at 10 µM (NCI-H226): 15.5%
- Activity [16]: 37.5%
- inhibition of growth at 10 µM [17]: 34.4%
- inhibition of growth at 10 µM (KM12): 25.5%
- inhibition of growth at 10 µM [18]: 55.3%
- inhibition of growth at 10 µM [19]: 31.5%
- inhibition of growth at 10 µM [20]: 10.6%
- Activity (A549): 73.55%
- Activity (HT-29 [21]): 75.54%
- inhibition of growth at 10 µM (MDA-MB-231): 19.6%
- inhibition of growth at 10 µM (A498): 32%
- inhibition of growth at 10 µM (CCRF-CEM): 36.5%
- Activity [22]: 78.03%
- inhibition of growth at 10 µM [23]: 12.1%
- inhibition of growth at 10 µM [24]: 31.5%
- Activity (U-251): 75.39%
- Activity (EKVX [25]): 52.44%
- inhibition of growth at 10 µM (HT-29 [26]): 24.5%
- inhibition of growth at 10 µM [27]: 55.3%
- Activity [28]: 90.35%

SMILES: C=C1CC[C@@H]2[C@](C)(COC(C)=O)[C@H](OC(C)=O)CC[C@@]2(C)[C@@H]1CC(NCCCCCCCC)C1=CCOC1=O (mixture of isomers)
- Activity [1]: 35.89%
- Activity [2]: 87.68%
- inhibition of growth at 10 µM [3]: 14.3%
- inhibition of growth at 10 µM [4]: 8.03%
- inhibition of growth at 10 µM [5]: 32.2%
- inhibition of growth at 10 µM (NCI-H322M; read-out: GI): 1.99%
- Activity [6]: 77.13%
- Activity (Malme-3M): 84.15%
- Activity (T47D): 57.98%
- inhibition of growth at 10 µM [7]: 43.9%
- inhibition of growth at 10 µM (786-0): 20.1%
- inhibition of growth at 10 µM (ACHN): 14%
- inhibition of growth at 10 µM [8]: 31.3%
- Activity [9]: 74.62%
- Activity (SK-MEL-28): 85.58%
- inhibition of growth at 10 µM (EKVX [10]): 24.3%
- inhibition of growth at 10 µM [11]: 33%
- Activity [12]: 81%
- inhibition of growth at 10 µM [13]: 30.4%
- inhibition of growth at 10 µM [14]: 55.4%
- Activity (MCF7): 68.8%
- Activity [15]: 53.89%
- inhibition of growth at 10 µM (NCI-H226): 34.2%
- Activity [16]: 35.98%
- inhibition of growth at 10 µM [17]: 52.3%
- inhibition of growth at 10 µM (KM12): 31.4%
- inhibition of growth at 10 µM [18]: 66.4%
- inhibition of growth at 10 µM [19]: 46.1%
- inhibition of growth at 10 µM [20]: 10.8%
- Activity (A549): 67.24%
- Activity (HT-29 [21]): 70.47%
- inhibition of growth at 10 µM (MDA-MB-231): 29.2%
- inhibition of growth at 10 µM (A498): 35.7%
- inhibition of growth at 10 µM (CCRF-CEM): 52.7%
- Activity [22]: 85.68%
- inhibition of growth at 10 µM [23]: 22.9%
- Activity [29]: 78.29%
- inhibition of growth at 10 µM [24]: 12.3%
- Activity (U-251): 55.53%
- Activity (EKVX [25]): 75.77%
- inhibition of growth at 10 µM [30]: 21.2%
- inhibition of growth at 10 µM (HT-29 [26]): 29.5%
- inhibition of growth at 10 µM [27]: 64.1%
- Activity [28]: 91.44%
